Laboratory results reported in article PMC4906958 (Journal of the American Chemical Society, 2016).

Tests used:
MelB of E. coli (MelBEc) [1] = target: T1, MelB of E. coli (MelBEc) (Escherichia coli, UniProt P02921); test: Trp to D2G FRET, reversed by melibiose, in detergent extract; type: cell-based
[2] = target: LeuT (leucine transporter) (Aquifex aeolicus, UniProt O67854); test: radioligand binding by scintillation proximity assay
MelB of E. coli (MelBEc) [3] = target: T1, MelB of E. coli (MelBEc); test: melibiose reversal of Trp to D2G FRET in detergent extract; type: cell-based

T1 sequence (P02921 2-473): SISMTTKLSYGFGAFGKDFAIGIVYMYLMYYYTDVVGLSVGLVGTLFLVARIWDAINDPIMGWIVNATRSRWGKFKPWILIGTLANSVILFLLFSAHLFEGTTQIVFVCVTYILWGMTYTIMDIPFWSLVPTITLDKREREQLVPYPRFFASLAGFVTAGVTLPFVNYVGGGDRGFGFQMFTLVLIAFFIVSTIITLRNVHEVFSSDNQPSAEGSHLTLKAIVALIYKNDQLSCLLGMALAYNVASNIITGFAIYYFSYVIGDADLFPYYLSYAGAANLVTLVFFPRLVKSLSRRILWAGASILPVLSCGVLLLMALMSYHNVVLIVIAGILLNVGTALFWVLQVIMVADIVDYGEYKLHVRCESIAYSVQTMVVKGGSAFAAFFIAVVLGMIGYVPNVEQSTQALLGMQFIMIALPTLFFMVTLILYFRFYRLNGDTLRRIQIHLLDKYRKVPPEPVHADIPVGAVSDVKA

SMILES: CN(C)c1cccc2c(S(=O)(=O)NCCS[C@@H]3O[C@H](CO)[C@H](O)[C@H](O)[C@H]3O)cccc12 [D2G, dansyl-2-galactoside]
- Trp to D2G FRET, reversed by melibiose, in detergent extract (MelB of E. coli (MelBEc) [1]): Melibiose reversal of Trp to dansyl-2-galactoside (D^2G) FRET.

SMILES: CC(C)C[C@H](N)C(=O)O [leucine]
- radioligand binding by scintillation proximity assay (SPA) [2]: measuring the ability to bind a radio-labelled ligand ([^3H]-leucine) via scintillation proximity assay (SPA)

SMILES: OC[C@H]1O[C@H](OC[C@H]2OC(O)[C@H](O)[C@@H](O)[C@@H]2O)[C@H](O)[C@@H](O)[C@H]1O (stereo partly drawn) [melibiose]
- melibiose reversal of Trp to D2G FRET in detergent extract (MelB of E. coli (MelBEc) [3]): MelBEc in PSE-C11 maintained the melibiose binding, which is similar to that observed for the protein in MNG-3
